Results published in ChEMBL document CHEMBL1130589, “Synthesis and evaluation of a novel series of phosphodiesterase IV inhibitors. A potential treatment for asthma” (Bioorg Med Chem Lett, 1998).

Columns and labels:
Type in all cases: protein assay
Phosphodiesterase 4 [1] = target: T1, Phosphodiesterase 4 (Homo sapiens, UniProt P27815+Q08499+Q07343+Q08493); assay: Inhibition of phosphodiesterase 4
Phosphodiesterase 4 [2] = target: T1, Phosphodiesterase 4; assay: (§1) Inhibition of Rolipram binding to PDE4 at 1 uM
Phosphodiesterase 4 [3] = target: T1, Phosphodiesterase 4; assay: Relative inhibition of phosphodiesterase 4 activity and Rolipram binding to PDE4
Phosphodiesterase 4 [4] = target: T1, Phosphodiesterase 4; assay: Inhibition of Rolipram binding to PDE4
Phosphodiesterase 4 [5] = target: T1, Phosphodiesterase 4; assay: Inhibition of Rolipram binding to PDE4 at 10 uM
Phosphodiesterase 4 [6] = target: T1, Phosphodiesterase 4; assay: Inhibition of Rolipram binding to PDE4 at 100 uM
Phosphodiesterase 4 [7] = target: T1, Phosphodiesterase 4; assay: as §1; remark: listed apart in the source

| SMILES | IC50 (Phosphodiesterase 4 [1]) [nM] | inhibition (Phosphodiesterase 4 [2]) [%] | Ratio (Phosphodiesterase 4 [3]) | IC50 (Phosphodiesterase 4 [4]) [nM] | inhibition (Phosphodiesterase 4 [5]) [%] | inhibition (Phosphodiesterase 4 [6]) [%] | IC50 (Phosphodiesterase 4 [7]) [nM] |
| --- | --- | --- | --- | --- | --- | --- | --- |
| CCn1cc(C(=O)NC2CCc3cc(NC(C)=O)ccc32)c(=O)c2cnc(N3CCCC3)nc21 (configuration not stated) | 1800 | 17 | < 1 | – | – | – | – |
| CCn1cc(C(=O)NC2CCc3cc(OC)c(OC)cc32)c(=O)c2cc(C(F)(F)F)ccc21 (configuration not stated) | 900 | 22 | < 0.9 | – | – | – | – |
| CCCn1cc(C(=O)NCCc2ccncc2)c(=O)c2cc(C(F)(F)F)ccc21.Cl | 1700 | – | 0.17 | 10000 | – | – | – |
| CCn1cc(C(=O)NCCc2ccncc2)c(=O)c2cc(C(F)(F)F)ccc21 | 1500 | – | < 0.15 | – | 24 | – | – |
| CCn1cc(C(=O)NCCc2ccccc2)c(=O)c2cc(C(F)(F)F)ccc21 | 600 | 8 | < 0.6 | – | – | – | – |
| CCn1cc(C(=O)N(C)CCc2ccccc2)c(=O)c2cc(C(F)(F)F)ccc21 | 49000 | – | < 0.49 | – | – | 15 | – |
| CCn1cc(C(=O)N/N=C/c2ccccc2Cl)c(=O)c2cc(C(F)(F)F)ccc21 | 1100 | – | – | – | – | – | 10000 |
| CCn1cc(C(=O)NCCc2ccncc2)c(=S)c2cc(C(F)(F)F)ccc21 | 460 | 15 | < 0.46 | – | – | – | – |
| CCn1cc(C(=O)NCCc2ccncc2)c(=O)c2cnc(N3CCCC3)nc21 | 1200 | 11 | < 1 | – | – | – | – |
| CC1CCc2cc(F)cc3c(=O)c(C(=O)NCCc4ccncc4)cn1c23 (configuration not stated) | 7000 | – | < 0.7 | – | 8 | – | – |
| CCn1cc(C(=O)NCCc2ccncc2)c(=O)c2cc3c(cc21)OCO3 | 23000 | – | 1 | – | 31 | – | – |
